IC50 data for 56 molecules are collected here from US10954215B2, “Compounds as modulators of ROR gamma” (Boehringer Ingelheim International GmbH, priority 2016, dated 2021).

The assay has as its target T1, RORγ (Homo sapiens, UniProt P51449).
T1 construct: expressed in transfected cells; host or cells: HEK 293 cells, transiently transfected
T1 sequence (P51449 269-508 limits assumed): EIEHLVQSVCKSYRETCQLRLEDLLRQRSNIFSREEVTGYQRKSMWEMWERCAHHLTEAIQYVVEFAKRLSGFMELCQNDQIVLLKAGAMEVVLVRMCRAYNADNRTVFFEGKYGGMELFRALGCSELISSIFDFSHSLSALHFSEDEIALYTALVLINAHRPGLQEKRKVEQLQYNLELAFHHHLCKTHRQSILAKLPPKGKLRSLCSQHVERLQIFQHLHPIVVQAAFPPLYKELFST
Kind of assay: Reporter Gene Assay (RGA): inhibition of RORγ transactivation of a luciferase reporter in transiently transfected HEK 293 cells. The format is cell-based. The note with it: HEK 293 cells cotransfected with pGL4.3 luc2P/GAL4UAS and pBIND Gal4DBD hRORC LBD; 20-24 h incubation; luciferase luminescence. How it is done: Reporter Gene Assay (RGA)
A nuclear receptor transactivation assay is performed to quantitate the ability of test compounds to inhibit RORγ transactivation of a luciferase reporter. A similar assay is described in: Khan et al., Bioorganic & Medicinal Chemistry Letters 23 (2013), 532-536. The system uses transiently transfected HEK 293 cells cotransfected with two plasmids (pGL4.3, luc2P/GAL4UAS/Hygro, and pBIND, Gal4DBD hRORC LBD1-3). The positive control is co-transiently transfected with both plasmids, and the negative control contains the pGL4.3 promoter sequence. Assays are assembled in 384 well plates where transiently transfected cells and test compound at varying concentrations are incubated for 20-24 h. The next day, assays plates are taken out and equilibrated at RT for 20-30 minutes. Bright-Glo™ Luciferase Assay System is used to detect Luciferase production. After addition of Bright GLO detection reagent, the plates are incubated at RT for 20 minutes. The plates are read on an Envision plate reader to measure luminescence signal. The RLU signal is converted to POC relative to control and blank wells.
Compound dilution buffer:
Bright Glo Luciferase Assay System: Promega #E2620
Thaw lysis buffer provided in kit, add 100 mL lysis buffer to substrate powder.

Molecule `CCS(=O)(=O)c1ccc(CNC(=O)N2CC(c3ccccc3)C(c3ccnn3-c3ccccc3)C2)cc1` (centres unmarked) [Example 12] came in with an IC50 of 2100 nM.

Consider `CCS(=O)(=O)c1ccc(CNC(=O)N2CC(c3cccc(Cl)c3)C(c3ccccc3C(F)(F)F)C2)nc1` (centres unmarked) [Example 47], for which half-maximal inhibition (IC50) required 1400 nM.

`CCS(=O)(=O)c1ccc(CNC(=O)N2CC(c3ccccc3)C(c3ccccc3)C2)cn1` (centres unmarked) [Example 3] had an IC50 of 7900 nM.

In the case of `CCS(=O)(=O)c1cnc(CNC(=O)N2CC(c3cccc(C4CC4)n3)C(c3cc(C4CC4)nn3C(C)C)C2)nc1` (centres unmarked) [Example 54], the IC50 worked out at 5200 nM.

The molecule `CCS(=O)(=O)c1ccc(CNC(=O)N2CC(c3ccccc3)C(c3nc(C4CC4)nn3C(C)(C)C)C2)cc1` (centres unmarked) [Example 36] returned a concentration for half-maximal inhibition (IC50) of 2600 nM.

The molecule `CCS(=O)(=O)c1ccc(CNC(=O)N2CC(c3cccc(C4CC4)n3)C(c3cn(C(C)C)nc3C(C)(C)C)C2)cc1` (centres unmarked) [Example 57] gave an IC50 of 1050 nM.

On to `CCS(=O)(=O)c1ccc(CNC(=O)N2CC(c3ccccc3)C(c3cc(C4CC4)nn3CC3CC3)C2)cc1` (centres unmarked) [Example 28], for which the IC50 was 1060 nM.

As for `CCS(=O)(=O)c1ccc(CNC(=O)N2CC(c3ccccc3)C(c3ncccc3C(F)(F)F)C2)cc1` (centres unmarked) [Example 14], inhibition was half-maximal at 1000 nM (IC50).

Regarding `CCS(=O)(=O)c1ccc(CNC(=O)N2CC(c3ccccc3)C3(C2)Oc2c(C(C)C)ccc(C)c2C3=O)cc1` (centres unmarked) [Example 43], the IC50 stood at 149 nM.

Turning to `CCS(=O)(=O)c1ccc(CNC(=O)N2CC(c3ccccc3)C(c3cccc(OC(F)(F)F)c3)C2)nc1` (centres unmarked) [Example 30], the IC50 is 5200 nM.

With `CCS(=O)(=O)c1ccc(CNC(=O)N2CC(c3ccccc3)C(c3ccccc3)C2)nc1` (centres unmarked) [Example 2], the concentration for half-maximal inhibition (IC50) stood at 5000 nM.

On to `CCS(=O)(=O)c1ccc(CNC(=O)N2CC(c3ccccc3)C(c3cc(C)nn3C3CCCC3)C2)cc1` (centres unmarked) [Example 15], for which it took 565 nM to reach half-maximal inhibition (IC50).

Molecule `CCS(=O)(=O)c1ccc(CNC(=O)N2CC(c3ccccc3)C(c3cc(C(F)(F)F)cn(C(C)C)c3=O)C2)cc1` (centres unmarked) [Example 55] had a half-maximal inhibitory concentration (IC50) of 1500 nM.

`CCS(=O)(=O)c1ccc(CNC(=O)N2CC(c3ccccc3)C3(C2)Oc2c(C(C)C)ccc(C)c2C3=O)nc1` (centres unmarked) [Example 45] gave an IC50 of 260 nM.

With `CCS(=O)(=O)c1ccc(CNC(=O)N2CC(C(C)C)C3(C2)Oc2c(C(C)C)ccc(C)c2C3=O)cc1` (centres unmarked) [Example 10], half-maximal inhibition (IC50) was put at 275 nM.

Take `CCS(=O)(=O)c1ccc(CNC(=O)N2CC(c3ccccc3)C(c3ccccc3OC(F)(F)F)C2)nc1` (centres unmarked) [Example 29]: inhibition was half-maximal at 830 nM (IC50).

`CCS(=O)(=O)c1ccc(CNC(=O)N2CC(c3ccccc3)C(c3cn(C(C)C)nc3C(C)(C)C)C2)cc1` (centres unmarked) [Example 37]: the midpoint of inhibition, the IC50, lay at 440 nM.

`CCS(=O)(=O)c1ccc(CNC(=O)N2CC(c3ccccc3)C(c3cc(C(C)(C)C)nn3C(C)C)C2)nc1` (centres unmarked) [Example 41] showed an IC50 of 1450 nM.

On to `CCn1nc(C2CC2)cc1C1CN(C(=O)NCc2ccc(S(=O)(=O)CC)cc2)CC1c1ccccc1` (centres unmarked) [Example 8], for which half-maximal inhibition (IC50) required 1750 nM.

Molecule `CCS(=O)(=O)c1ccc(CNC(=O)N2CC(c3ccccc3)C(c3cccc(OC(F)(F)F)c3)C2)cc1` (centres unmarked) [Example 27] had an IC50 of 2400 nM.

For `CCS(=O)(=O)c1ccc(CNC(=O)N2CC(c3cccc(Cl)c3)C(c3nc(C(C)C)no3)C2)cc1` (centres unmarked) [Example 13], the IC50 was found to be 19000 nM.

As to `CCS(=O)(=O)c1ccc(CNC(=O)N2CC(C(C)C)C3(C2)Oc2c(C(C)C)ccc(C)c2C3=O)nc1` (centres unmarked) [Example 11], the IC50 is 620 nM.

Take `CNS(=O)(=O)c1ccc(CNC(=O)N2CC(c3ccccc3)C(c3cc(C4CC4)nn3C(C)C)C2)cc1` (centres unmarked) [Example 17]: the IC50 amounted to 2300 nM.

In the case of `CCS(=O)(=O)c1ccc(CNC(=O)N2CC(c3cccc(C4CC4)n3)C(c3cn(C4CC4)nc3C(C)(C)C)C2)cc1` (centres unmarked) [Example 56], the half-inhibitory concentration (IC50) amounted to 865 nM.

On to `CCS(=O)(=O)c1ccc(CNC(=O)N2CC(c3ccccc3)C(c3nc(C(C)C)nn3C(C)(C)C)C2)cc1` (centres unmarked) [Example 42], for which the IC50 turned out to be 1950 nM.

As to `CCS(=O)(=O)c1ccc(CNC(=O)N2CC(c3ccccc3)C(c3nn(C(C)C)nc3C3CC3)C2)nc1` (centres unmarked) [Example 23], the IC50 stood at 6200 nM.

`CCS(=O)(=O)c1ccc(CNC(=O)N2CC(c3ccccc3)C(c3cn(C4CC4)nc3C(C)(C)C)C2)cc1` (centres unmarked) [Example 33] came in with a half-maximal inhibitory concentration (IC50) of 510 nM.

Take `CCS(=O)(=O)c1ccc(CNC(=O)N2CC(c3ccccc3)C(c3nc(C4CC4)nn3C(C)C)C2)cc1` (centres unmarked) [Example 22]: it took 8700 nM to reach half-maximal inhibition (IC50).

As to `CCS(=O)(=O)c1ccc(CNC(=O)N2CC(c3cccc(Cl)c3)C(c3nc(C4CC4)cs3)C2)cc1` (centres unmarked) [Example 25], the concentration for half-maximal inhibition (IC50) stood at 4900 nM.

In turn, `CCS(=O)(=O)c1ccc(CNC(=O)N2C[C@H](c3ccccc3)[C@@H](c3cc(C4CC4)nn3C(C)C)C2)cc1` [Example 16B] registered an IC50 of 925 nM.

`CCS(=O)(=O)c1ccc(CNC(=O)N2CC(c3ccccc3)C(c3cc(C4CC4)nn3C(C)C)C2)cc1` (centres unmarked) [Example 16A] had an IC50 of 625 nM.

Take `CCS(=O)(=O)c1ccc(CNC(=O)N2CC(c3ccccc3)C(c3nn(C(C)C)nc3C3CC3)C2)cc1` (centres unmarked) [Example 19]: the IC50 was 4100 nM.

Take `CCS(=O)(=O)c1ccc(CNC(=O)N2CC(c3cccc(C4CC4)n3)C(c3cc(C4CC4)nn3C(C)C)C2)nc1` (centres unmarked) [Example 53]: the half-maximal inhibitory concentration (IC50) came out at 1550 nM.

Turning to `CCS(=O)(=O)c1ccc(CNC(=O)N2CC(c3ccccc3)C(c3cn(C)nc3C(C)(C)C)C2)cc1` (centres unmarked) [Example 9], the IC50 amounted to 1550 nM.

`CCS(=O)(=O)c1ccc(CNC(=O)N2CC(c3ccccc3)C(c3cc(C4CC4)nn3C)C2)cc1` (centres unmarked) [Example 6] gave a 50% inhibitory concentration (IC50) of 2600 nM.

`CCS(=O)(=O)c1ccc(CNC(=O)N2CC(c3ccccc3)C(c3csc4ccccc34)C2)cc1` (centres unmarked) [Example 7] displayed an IC50 of 1020 nM.

`CCS(=O)(=O)c1ccc(CNC(=O)N2CC(c3ccccc3)C(c3cc(C4CC4)nn3C(C)C)C2)cn1` (centres unmarked) [Example 20] yielded an IC50 of 5500 nM.

Turning to `CCS(=O)(=O)c1ccc(CNC(=O)N2CC(c3cccc(Cl)c3)C(c3nc(C4CC4)nn3C(C)C)C2)nc1` (centres unmarked) [Example 49], the midpoint of inhibition, the IC50, lay at 1750 nM.

As to `CCS(=O)(=O)c1cnc(CNC(=O)N2CC(c3ccccc3)C(c3cc(C4CC4)nn3C(C)C)C2)nc1` (centres unmarked) [Example 24], inhibition was half-maximal at 13000 nM (IC50).

In turn, `CCS(=O)(=O)c1ccc(CNC(=O)N2CC(c3cccc(Cl)c3)C(c3cc(C4CC4)nn3C(C)C)C2)cc1` (centres unmarked) [Example 48] had an IC50 of 775 nM.

In turn, `CCS(=O)(=O)c1ccc(CNC(=O)N2CC(c3ccccc3)C(c3ccccc3OC(F)(F)F)C2)cc1` (centres unmarked) [Example 26] registered an IC50 of 850 nM.

Turning to `CCS(=O)(=O)c1ccc(CNC(=O)N2CC(c3cc(C)cc(C)n3)C(c3cc(C4CC4)nn3C(C)C)C2)nc1` (centres unmarked) [Example 46], the half-inhibitory concentration (IC50) is 3200 nM.

In the case of `CCS(=O)(=O)c1ccc(CNC(=O)N2CC(c3ccccc3)C(c3cn(C4CC4)nc3C(C)(C)C)C2)nc1` (centres unmarked) [Example 35], the IC50 came out at 1900 nM.

Consider `CCS(=O)(=O)c1ccc(CNC(=O)N2CC(c3ccccc3)C(c3cc(C)nn3C)C2)cc1` (centres unmarked) [Example 4], for which the concentration for half-maximal inhibition (IC50) is 3900 nM.

On to `CCS(=O)(=O)c1ccc(CNC(=O)N2CC(c3ccccc3)C(c3ncccc3C3CC3)C2)cc1` (centres unmarked) [Example 5], for which the IC50 was found to be 2800 nM.

On to `CCS(=O)(=O)c1ccc(CNC(=O)N2CC(c3cccc(C4CC4)c3)C(c3cc(C4CC4)nn3C(C)C)C2)nc1` (centres unmarked) [Example 52], for which 1480 nM corresponded to half-maximal inhibition (IC50).

On to `CCS(=O)(=O)c1ccc(CNC(=O)N2CC(c3ccccc3)C(c3cn(C(C)C)nc3C(C)(C)C)C2)nc1` (centres unmarked) [Example 40], for which the midpoint of inhibition, the IC50, lay at 1300 nM.

For `CCS(=O)(=O)c1ccc(CNC(=O)N2CC(c3ccccc3)C(c3ccccc3)C2)cc1` (centres unmarked) [Example 1], half-maximal inhibition (IC50) required 2400 nM.

Take `CCS(=O)(=O)c1ccc(CNC(=O)N2C[C@@H](c3ccccc3)[C@H](c3cc(C4CC4)nn3C(C)C)C2)cc1` [Example 16C]: the midpoint of inhibition, the IC50, lay at 1250 nM.

`CCS(=O)(=O)c1ccc(CNC(=O)N2CC(c3ccccc3)C(c3cc(C4CC4)nn3C(C)C)C2)nc1` (centres unmarked) [Example 18] gave an IC50 of 2500 nM.

In turn, `CNS(=O)(=O)c1ccc(CNC(=O)N2CC(c3ccccc3)C(c3cn(C(C)C)nc3C(C)(C)C)C2)cc1` (centres unmarked) [Example 39] displayed an IC50 of 965 nM.

As for `CCS(=O)(=O)c1ccc(CNC(=O)N2CC(c3ccccc3)C(c3nc(C(C)C)nn3C3CC3)C2)cc1` (centres unmarked) [Example 21], the IC50 was 7400 nM.

In turn, `CCS(=O)(=O)c1ccc(CNC(=O)N2CC(c3cccc(Cl)c3)C(c3cccc4cnccc34)C2)cc1` (centres unmarked) [Example 32] yielded an IC50 of 1200 nM.

Turning to `CCS(=O)(=O)c1ccc(CNC(=O)N2CC(c3ccccc3)C(c3cc(C(F)(F)F)cnc3OC)C2)cc1` (centres unmarked) [Example 44], it took 1150 nM to reach half-maximal inhibition (IC50).

In turn, `CCS(=O)(=O)c1ccc(CNC(=O)N2CC(c3ccccc3)C(c3cc(C(C)(C)C)nn3C(C)C)C2)cc1` (centres unmarked) [Example 38] showed an IC50 of 780 nM.

The molecule `CCS(=O)(=O)c1ccc(CNC(=O)N2CC(c3ccccc3)C(c3cc(C4CC4)nn3CC3CC3)C2)nc1` (centres unmarked) [Example 31] registered a concentration for half-maximal inhibition (IC50) of 2200 nM.
